The text below walks through data of PMC3562233 (PLoS ONE, 2013).

By inhibition is commonly meant the relative decrease from the control value, in per cent.

Data set [1] deals with T1, WT M2 (Influenza A virus, UniProt P0DOF5). Description: cell-based. The settings on record: for inhibition at 100 µM: read-out: % inhibition at 100 µM in TEVC WT.
Target sequence in this assay (P0DOF5 whole entry, looked up): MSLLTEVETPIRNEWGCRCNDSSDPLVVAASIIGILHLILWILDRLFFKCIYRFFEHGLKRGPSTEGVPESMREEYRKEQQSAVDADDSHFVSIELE
Another data set is described as follows: in vitro. The settings on record: dog.
In data set [2] the target is T1, WT M2. Description: cell-based. The arrangement: expressed in transfected cells; host or cells: Saccharomyces cerevisiae, multicopy plasmid, GAL1 promoter. The settings on record: for growth of the strain expressing WT M2: 27% of control without amantadine, 48 h; for EC50: yeast expressing WT M2, growth measured after 40 h.
Target sequence in this assay (P0DOF5 whole entry): as the sequence (P0DOF5 whole entry, looked up) above
The subject of data set [3] is influenza A/Udorn/72 WT virus. In kind it is cell-based.
Data set [4] has as its target mammalian Na+/H+ exchanger. The arrangement: method as in PMID 3016497. The settings on record: read-out: apparent Ki; cited from earlier work.
For another data set, the system named is M2 channel. Also on record: method as in PMID 20570509. The note with it: weaker than amantadine; cited from earlier work.
Where [5] appears, read: read-out: EC50, yeast growth restoration.

Values joined by “and” are separate entries in the source; they are usually repeats but may differ in a detail not shown here. Equal values may be shown once. “Also recorded” adds a separate entry of the source. Where a name gives a salt, the structure may show the parent alone. Read-outs that look alike come from different tables or passages of the source.

Experimental for in vitro: Cytotoxicity towards MDCK cells was assayed after 48 h drug exposure with the MTT tetrazolium dye assay as described [55].

“3-(2-methylbut-3-yn-2-yl)-6-(methylthio)-1,2,3,4-tetrahydro-1,3,5-triazine hydroiodide [Compound 27]”: the “% inhibition at 100 µM in TEVC WT” value on WT M2 [1] was 17.0 ± 1.9.
In the case of `NC12CC3CC(CC(C3)C1)C2` [Amantadine, reference compound], on WT M2 [1], the inhibition at 100 µM amounted to 92%. For the same compound, the CC50 in the data set “in vitro” is approximately 100 µM. Further, the “growth of the strain expressing WT M2” value is 65 % of control on WT M2 [2] (0.3 µM amantadine), 95 % of control on WT M2 [2] (1 µM amantadine) and 95 % of control at WT M2 [2] (3 µM amantadine). Further, on WT M2 [2] (1 µM, 384-well plate assay, yeast expressing WT M2), the growth increase was 3 fold.
Turning to `O=C1NC(=S)NC(=O)C1=CNC12CC3CC(CC(C3)C1)C2` [Compound 1, 5-[(1-adamantylamino)methylene]-2-thioxodihydro-4,6(1H,5H)-pyrimidinedione], the EC50 on WT M2 [2] (setting [5]) is 2500 nM.
Still for that read-out and setting: as for `CC(=O)Nc1ccc(S(=O)(=O)NC23CC4CC(CC(C4)C2)C3)cc1` [Compound 2, N1-(4-[(1-adamantylamino)sulfonyl]phenyl)acetamide], the figure is 5000 nM; as for `c1cc2c(cc1NC1C3CC4CC(C3)CC1C4)OCO2` (centres unmarked) [Compound 3, 2-adamantyl (1,3-benzodioxol-5-yl)amine], 20000 nM.
In the case of `O=[N+]([O-])c1ccc(CNC23CC4CC(CC(C4)C2)C3)cc1` [Compound 4, 1-adamantyl (4-nitrobenzyl)amine], the inhibition at 100 µM on WT M2 [1] was 43.5%. Besides, on WT M2 [2] (setting [5]), the EC50 was found to be 5000 nM.
As to `O=[N+]([O-])c1ccccc1CNC1C2CC3CC(C2)CC1C3` (centres unmarked) [Compound 5, 2-adamantyl (2-nitrobenzyl)amine], the EC50 at WT M2 [2] (setting [5]) turned out to be 5000 nM.
As to `CC(NC(=S)NC(=O)C=Cc1ccco1)C12CC3CC(CC(C3)C1)C2` (centres unmarked) [Compound 6, N-(([1-(1-adamantyl)ethyl]amino)carbonothioyl)-3-(2-furyl)acrylamide], the “inhibition of plaque formation” value in data set [3] is recorded as “almost completely inhibited”. The same compound came in with a CC50 in “in vitro” of more than 30 µM. Also, the EC50 at WT M2 [2] (EC50, yeast growth restoration) was 200 nM and < 1000 nM.
Take `CS/C(=N/C#N)NC12CC3CC(CC(C3)C1)C2` [Compound 7, (E)-methyl N-((3s,5s,7s)-adamantan-1-yl)-N'-cyanocarbamimidothioate]: on WT M2 [2] (setting [5]), the EC50 is 12000 nM.
For the compound `CNCC(=O)C12CC3CCC(CC(C3)C1)C2` [Compound 8, 2-(methylamino)-1-tricyclo[4.3.1.1~3,8~] undec-1-ylethanone hydrochloride], at WT M2 [2] (setting [5]), the EC50 was 3000 nM.
Still for that read-out and setting: as for `CCc1noc(C)c1C(=O)NCC12CC3CC(CC(C3)C1)C2` [Compound 9, N-(adamantan-1-ylmethyl)-3-ethyl-5-methyl-1,2-oxazole-4-carboxamide], the figure is 800 nM and < 1000 nM.
Regarding `Cc1ncc(C23CC4CC(CC(C4)C2)C3)[nH]1` [Compound 10, 5-(adamantan-1-yl) -2-methyl-1H-imidazole], the “inhibition of plaque formation” value in data set [3] is “almost completely inhibited”. Also, the CC50 in the data set “in vitro” is more than 100 µM. For the same compound, the EC50 on WT M2 [2] (EC50, yeast growth restoration) is < 1000 nM and 300 nM.
With `Cc1cc(C(=O)NC2C3CC4CC(C3)CC2C4)no1` (centres unmarked) [Compound 11, N-(adamantan-2-yl)-5-methyl-1,2-oxazole-3-carboxamide], the EC50 on WT M2 [2] (setting [5]) stood at 1500 nM.
Consider `C1CNC(NCC23CC4CC(CC(C4)C2)C3)=N1` [Compound 12, N-(adamantan-1-ylmethyl)-4,5-dihydro-1H-imidazol-2-amine hydroiodide], for which, at WT M2 [2] (setting [5]), the EC50 is 400 nM and < 1000 nM.
Regarding `OCC1CCCN1CC12CC3CC(CC(C3)C1)C2` (centres unmarked) [Compound 13, [1-(adamantan-1-ylmethyl)pyrrolidin-2-yl] methanol hydrochloride], the EC50 at WT M2 [2] (setting [5]) turned out to be 15000 nM.
Regarding `NC(N)=NC(=O)c1nc(Cl)c(N2CCCCCC2)nc1N` [Compound 14, Hexamethylene amiloride], the inhibition at 100 µM on WT M2 [1] was 89.9%. Besides, in data set [4], the Ki is 200 nM. Also, the CC50 in “in vitro” turned out to be 16 µM. In addition, the EC50 at WT M2 [2] (EC50, yeast growth restoration) is 1100 nM and 1000 nM.
As for `C=C1C(N)CC2CC1C2(C)C` (stereo not drawn) [Compound 15, 3-amino-beta-pinene], on WT M2 [2] (setting [5]), the EC50 is 500 nM and < 1000 nM.
Take `CSC1=NCN(Cc2ccccc2)CN1` [Compound 18, 3-benzyl-6-(methylthio)-1,2,3,4-tetrahydro-1,3,5-triazine hydroiodide]: at WT M2 [1], the inhibition at 100 µM was determined as 4.5%. Moreover, the EC50 on WT M2 [2] (setting [5]) is 12000 nM.
As for `Cn1cccc1CNC1CCCCCCC1` [Compound 19, N-[(1-methyl-1H-pyrrol-2-yl)methyl] cyclooctanamine], the EC50 on WT M2 [2] (setting [5]) stood at 30000 nM.
For `CN(C)c1nc(N)c(C(=O)NC(=N)N)nc1Cl` [Compound 20, 5-(N,N-Dimethyl)amiloride hydrochloride], on WT M2 [1], the “% inhibition at 100 µM in TEVC WT” value is “moderate inhibition” and the inhibition at 100 µM was 23.3 ± 1.9%.
Taken in the same sequence, the figures for `CCN(c1nc(N)c(C(=O)NC(=N)N)nc1Cl)C(C)C` [Compound 21, 5-(N-Ethyl-N-isopropyl)amiloride] were “moderate inhibition” and 47.3 ± 0.5%.
`CSC1=NCN(Cc2cccs2)CN1` [Compound 23, 6-(methylthio)-3-(thiophen-2-ylmethyl)-1,2,3,4-tetrahydro-1,3,5-triazine]: the inhibition at 100 µM on WT M2 [1] was found to be 8.1 ± 1.7%.
Still for that read-out and setting: with `CCSC1=NCN(Cc2ccco2)CN1` [Compound 24, 6-(ethylthio)-3-(furan-2-ylmethyl)-1,2,3,4-tetrahydro-1,3,5-triazine] the figure was 17.9 ± 2.8%.
Turning to `Br.CSC1=NCN(C(C)(C)C)CN1` [Compound 25, 3-(tert-butyl)-6-(methylthio)-1,2,3,4-tetrahydro-1,3,5-triazine hydrobromide], the “% inhibition at 100 µM in TEVC WT” value at WT M2 [1] was 13.3 ± 1.5.
Take `Br.CSC1=NCN(CCCO)CN1` [Compound 26, 3-(4-(methylthio)-5,6-dihydro-1,3,5-triazin-1(2H)-yl)propan-1-ol hydrobromide]: the “% inhibition at 100 µM in TEVC WT” value at WT M2 [1] is 5.5 ± 0.9.
For the compound `CCSC1=NCN(Cc2ccccc2)CN1` [Compound 28, 3-benzyl-6-(ethylthio)-1,2,3,4-tetrahydro-1,3,5-triazine], the inhibition at 100 µM at WT M2 [1] came to 5.4 ± 1.6%.
Turning to `CCSC1=NCN(Cc2cccs2)CN1` [Compound 29, 6-(ethylthio)-3-(thiophen-2-ylmethyl)-1,2,3,4-tetrahydro-1,3,5-triazine], the inhibition at 100 µM at WT M2 [1] was 6.7 ± 1.4%.
`CCSC1=NCN(CCc2cccs2)CN1` [Compound 30, 6-(ethylthio)-3-(2-(thiophen-2-yl)ethyl)-1,2,3,4-tetrahydro-1,3,5-triazine]: the inhibition at 100 µM on WT M2 [1] turned out to be 1.1 ± 1.1%.
Same read-out and setting: with `CCSC1=NCN(CC(C)C)CN1` [Compound 31, 6-(ethylthio)-3-isobutyl-1,2,3,4-tetrahydro-1,3,5-triazine] the figure was 1.2 ± 0.6%.
As to `CCSC1=NCN(CC(C)(C)C)CN1` [Compound 32, 6-(ethylthio)-3-neopentyl-1,2,3,4-tetrahydro-1,3,5-triazine], the “% inhibition at 100 µM in TEVC WT” value at WT M2 [1] amounted to 4.7 ± 1.3.
As for `CCSC1=NCN(CC2CCCCC2)CN1` [Compound 33, 3-(cyclohexylmethyl)-6-(ethylthio)-1,2,3,4-tetrahydro-1,3,5-triazine], the inhibition at 100 µM on WT M2 [1] was found to be 63.9 ± 2%. Also, the EC50 at WT M2 [2] (setting [5]) is 700 nM.
As for `CCSC1=NCN(C2CCCCCCC2)CN1` [Compound 34, 3-cyclooctyl-6-(ethylthio)-1,2,3,4-tetrahydro-1,3,5-triazine], the inhibition at 100 µM on WT M2 [1] was determined as 89.7%. Moreover, in data set [3], the “inhibition of plaque formation” value is recorded as “completely inhibited; also recorded: moderate inhibition”. In addition, the CC50 in “in vitro” was found to be 75 µM. At WT M2 [2] (EC50, yeast growth restoration), the EC50 worked out at 300 nM.
On to `NC1CCCCCCC1` [Cyclooctylamine], for which the “binding affinity relative to amantadine” value in the data set with M2 channel is recorded as 6 fold.
